Laboratory results published in patent US6506766B1 (Abbott Laboratories, priority 1998, dated 2003).

Experiments:
[1] = target: T1, human glucocorticoid receptor-α [GRX] isoform (Homo sapiens, UniProt P04150); experiment: Radioligand binding with human glucocorticoid receptor cytosol ([3H]-dexamethasone competition); conditions: GRX cytosol expressed in insect SF21 cells, [3H]-Dex ~0.9 nM, 4° C. overnight; Ki by Cheng-Prusoff, KL ~[…]; read-out: Ki (nM) GR
T1 construct: host or cells: insect SF21 cells (baculovirus)
T1 sequence (P04150 1-777): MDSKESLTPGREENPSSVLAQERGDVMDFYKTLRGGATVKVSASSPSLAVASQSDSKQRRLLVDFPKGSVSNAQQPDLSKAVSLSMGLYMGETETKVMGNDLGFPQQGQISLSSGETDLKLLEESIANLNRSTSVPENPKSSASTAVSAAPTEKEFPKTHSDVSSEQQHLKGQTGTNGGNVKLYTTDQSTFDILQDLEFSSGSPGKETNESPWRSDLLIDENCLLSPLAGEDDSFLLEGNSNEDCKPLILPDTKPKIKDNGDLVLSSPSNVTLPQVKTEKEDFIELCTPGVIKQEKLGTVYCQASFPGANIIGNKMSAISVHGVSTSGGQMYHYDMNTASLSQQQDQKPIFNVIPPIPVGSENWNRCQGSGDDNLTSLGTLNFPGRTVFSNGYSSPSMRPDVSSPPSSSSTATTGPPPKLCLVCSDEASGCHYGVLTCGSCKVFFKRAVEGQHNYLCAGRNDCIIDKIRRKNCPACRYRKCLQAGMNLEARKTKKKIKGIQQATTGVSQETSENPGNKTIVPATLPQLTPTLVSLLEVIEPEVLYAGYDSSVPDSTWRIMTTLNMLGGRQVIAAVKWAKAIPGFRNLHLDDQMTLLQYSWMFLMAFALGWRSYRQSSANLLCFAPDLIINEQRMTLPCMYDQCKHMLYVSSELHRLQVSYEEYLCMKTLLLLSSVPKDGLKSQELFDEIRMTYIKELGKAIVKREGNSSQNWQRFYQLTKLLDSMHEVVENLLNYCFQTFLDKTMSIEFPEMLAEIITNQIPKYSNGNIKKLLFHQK

[2] = target: T2, human progesterone receptor-A [PRA] isoform (Homo sapiens, UniProt P06401); experiment: Radioligand binding with human progesterone receptor cytosol ([3H]-progesterone competition); conditions: PRA cytosol expressed in insect SF21 cells, [3H]Prog ~0.8 nM, 4° C. overnight; Ki by Cheng-Prusoff, KL ~4.5 nM; read-out: Ki (nM) PR
T2 construct: host or cells: insect SF21 cells (baculovirus)
T2 sequence (P06401 1-769 isoform P06401-2): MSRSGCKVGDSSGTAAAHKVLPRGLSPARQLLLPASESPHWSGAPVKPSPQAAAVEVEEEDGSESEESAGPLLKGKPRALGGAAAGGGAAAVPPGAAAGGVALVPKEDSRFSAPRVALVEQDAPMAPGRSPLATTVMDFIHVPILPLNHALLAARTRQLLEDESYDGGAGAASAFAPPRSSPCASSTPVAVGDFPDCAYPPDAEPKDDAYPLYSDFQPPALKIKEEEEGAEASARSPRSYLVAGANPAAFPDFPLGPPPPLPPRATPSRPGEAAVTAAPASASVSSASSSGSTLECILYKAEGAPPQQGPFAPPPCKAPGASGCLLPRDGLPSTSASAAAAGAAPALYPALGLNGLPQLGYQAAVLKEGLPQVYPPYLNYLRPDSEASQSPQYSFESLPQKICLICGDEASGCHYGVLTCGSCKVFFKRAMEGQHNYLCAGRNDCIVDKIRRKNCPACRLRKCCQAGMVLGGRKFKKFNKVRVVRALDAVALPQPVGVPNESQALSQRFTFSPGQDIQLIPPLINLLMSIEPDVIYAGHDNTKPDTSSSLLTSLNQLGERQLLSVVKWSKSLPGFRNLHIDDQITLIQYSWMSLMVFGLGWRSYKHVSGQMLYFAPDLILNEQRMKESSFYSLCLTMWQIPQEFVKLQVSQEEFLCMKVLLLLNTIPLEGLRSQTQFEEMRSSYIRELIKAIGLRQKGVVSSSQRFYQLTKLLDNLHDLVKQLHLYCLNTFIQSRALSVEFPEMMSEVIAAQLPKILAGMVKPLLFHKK

Ki [1]	Ki [2]	SMILES
20 nM	≥ 10000 nM	C=CCC1Oc2cccc(OC)c2-c2ccc3c(c21)C(C)=CC(C)(C)N3 (single isomer, unassigned; (+)) [Example 37, (+)-2,5-Dihydro-10-methoxy-2,2,4-trimethyl-5-(2-propenyl)-1H-[1]benzopyrano[3,4-f]quinoline]
1.4 nM	1700 nM	C=CCC1Oc2cccc(OC)c2-c2ccc3c(c21)C(C)=CC(C)(C)N3 (single isomer, unassigned; (-)) [Example 36, (−)2,5-Dihydro-10-methoxy-2,2,4-trimethyl-5-(2-propenyl)-1H-[1]benzopyrano[3,4-f]quinoline]
238 nM	≥ 10000 nM	COc1cccc2c1-c1ccc3c(c1[C@@H](C1CCCOC1=O)O2)C(C)=CC(C)(C)N3 (stereo in doubt) [Example 134, rel (5R,2′R) 2,5-Dihydro-10-methoxy-5-(2-oxo-3-tetrahydropyranyl)-2,2,4-trimethyl-1H[1]benzopyrano[3,4-f]quinoline]
1.8 nM	≥ 10000 nM	COc1cccc2c1-c1ccc3c(c1[C@H](C1(C)CC=CCC1)O2)C(C)=CC(C)(C)N3 (stereo in doubt) [Example 152, rel (5S,3′S) 2,5-Dihydro-10-methoxy-5-(1-methyl-3-cyclohexenyl)-2,2,4-trimethyl-1H[1]benzopyrano[3,4-f]quinoline]
8.6 nM	≥ 10000 nM	COc1cccc2c1-c1ccc3c(c1C(c1ccccc1)O2)C(C)=CC(C)(C)N3 (centres unmarked) [Example 1, 2,5-Dihydro-10-methoxy-2,2,4-trimethyl-5-phenyl-1H-[1]benzopyrano[3,4-f]quinoline1H-[1]benzopyrano[3,4-f]quinoline]
7.6 nM	1700 nM	C=CCC1Oc2cccc(OC)c2-c2ccc3c(c21)C(C)=CC(C)(C)N3 (centres unmarked) [Example 2, 2,5-Dihydro-10-methoxy-2,2,4-trimethyl-5-(2-propenyl)-1H-[1]benzopyrano[3,4-f]quinoline]
4.8 nM	2650 nM	C=CCC1Oc2cccc(NC)c2-c2ccc3c(c21)C(C)=CC(C)(C)N3 (centres unmarked) [Example 3, 2,5-Dihydro-2,2,4,N-tetramethyl-5-(2-propenyl)-1H-[1]benzopyrano[3,4-f]quinolin-10-amine]
7 nM	2960 nM	C=CCC1Oc2cccc(C(=O)OC)c2-c2ccc3c(c21)C(C)=CC(C)(C)N3 (centres unmarked) [Example 4, Methyl 2,5-Dihydro-2,2,4-trimethyl-5-(2-propenyl)-1H-[1]benzopyrano[3,4-f]quinoline-10-carboxylate]
357 nM	≥ 10000 nM	C=CCC1Oc2cccc(C=C)c2-c2ccc3c(c21)C(C)=CC(C)(C)N3 (centres unmarked) [Example 5, 10-Ethenyl-2,5-dihydro-2,2,4-trimethyl-5-(2-propenyl)-1H-[1]benzopyrano[3,4-f]quinoline]
3.8 nM	321 nM	C#Cc1cccc2c1-c1ccc3c(c1C(CC=C)O2)C(C)=CC(C)(C)N3 (centres unmarked) [Example 6, 10-Ethynyl-2,5-dihydro-2,2,4-trimethyl-5-(2-propenyl)-1H-[1]benzopyrano[3,4-f]quinoline]
4.3 nM	5680 nM	CC1=CC(C)(C)Nc2ccc3c(c21)C(c1ccccc1)Oc1cccc(O)c1-3 (centres unmarked) [Example 7, 2,5-Dihydro-2,2,4-trimethyl-5-phenyl-1H-[1]benzopyrano[3,4-f]quinolin-10-ol]
168 nM	6010 nM	C=CCC1Oc2cccc(OC(F)F)c2-c2ccc3c(c21)C(C)=CC(C)(C)N3 (centres unmarked) [Example 8, 10-(Difluoromethoxy)-2,5-dihydro-2,2,4-trimethyl-5-(2-propenyl)-1H-[1]benzopyrano[3,4-f]quinoline]
60.5 nM	≥ 10000 nM	CCOc1cccc2c1-c1ccc3c(c1C(c1ccccc1)O2)C(C)=CC(C)(C)N3 (centres unmarked) [Example 9, 10-Ethoxy-2,5-dihydro-2,2,4-trimethyl-5-phenyl-1H-[1]benzopyrano[3,4-f]quinoline]
11.1 nM	≥ 10000 nM	COc1cccc2c1-c1ccc3c(c1C(c1cccc(O)c1)O2)C(C)=CC(C)(C)N3 (centres unmarked) [Example 13, 3-(2,5-Dihydro-10-methoxy-2,2,4-trimethyl-1H-[1]benzopyrano[3,4-f]quinolin-5-yl)phenol]

Further lines, the compound ahead of its results:

SMILES	Ki [1]	Ki [2]
COc1c(O)ccc2c1-c1ccc3c(c1C(C1C=CCCC1)O2)C(C)=CC(C)(C)N3 (single isomer, unassigned; (+)) [Example 284]	110 nM	2100 nM
COc1c(O)ccc2c1-c1ccc3c(c1[C@H](C1(C)CC=CCC1)O2)C(C)=CC(C)(C)N3 (single isomer, unassigned; (-)) [Example 238]	1.2 nM	11.5 nM
CC1=CC(C)(C)Nc2ccc3c(c21)C(C1CCCC1)Oc1ccc(O)c(Cl)c1-3 (single isomer, unassigned; (-)) [Example 422, (−)2,5-Dihydro-9-hydroxy-10-chloro-2,2,4-trimethyl-5-cyclopentyl-1H-[1]benzopyrano[3,4-f]quinoline]	0.28 nM	2.9 nM
COc1cccc2c1-c1ccc3c(c1C([C@H]1C=C(CSC)CCC1)O2)C(C)=CC(C)(C)N3 (stereo in doubt) [Example 161]	3.3 nM	≥ 10000 nM
COc1cccc2c1-c1ccc3c(c1C([C@@H]1C=C(COC(C)=O)CCC1)O2)C(C)=CC(C)(C)N3 (stereo in doubt) [Example 162]	6.5 nM	≥ 10000 nM
COc1cccc2c1-c1ccc3c(c1C([C@@H]1C=C(CSC)CCC1)O2)C(C)=CC(C)(C)N3 (stereo in doubt) [Example 166]	8.16 nM	5630 nM
COc1cccc2c1-c1ccc3c(c1C([C@H]1C=C(CN4CCOCC4)CCC1)O2)C(C)=CC(C)(C)N3 (stereo in doubt) [Example 167, rel (5R, 3′R) 2,5-Dihydro-10-methoxy-5-(1-(N-morpholino)methyl-3-cyclohexenyl)-2,2,4-trimethyl-1H-[1]benzopyrano[3,4-f]quinoline]	21 nM	≥ 10000 nM
COc1cccc2c1-c1ccc3c(c1C([C@@H]1C=C(CN(C)C)CCC1)O2)C(C)=CC(C)(C)N3 (stereo in doubt) [Example 169, rel (5R, 3′S) 2,5-Dihydro-10-methoxy-5-(1-(N,N dimethylamino)methyl-3-cyclohexenyl)-2,2,4-trimethyl-1H-[1]benzopyrano[3,4-f]quinoline]	300 nM	≥ 10000 nM
CC(=O)Oc1cccc2c1-c1ccc3c(c1C(c1ccccc1)O2)C(C)=CC(C)(C)N3 (centres unmarked) [Example 10, 2,5-Dihydro-2,2,4-trimethyl-5-phenyl-1H-[1]benzopyrano[3,4-f]quinoline-10-ol Acetate (Ester)]	179 nM	10900 nM
COc1cccc2c1-c1ccc3c(c1C(c1cc(C)cc(Br)c1)O2)C(C)=CC(C)(C)N3 (centres unmarked) [Example 11, 5-(3-Bromo-5-methylphenyl)-2,5-dihydro-10-methoxy-2,2,4-trimethyl-1H-[1]benzopyrano[3,4-f]quinoline]	4.4 nM	288 nM
COc1cccc2c1-c1ccc3c(c1C(c1cccc(OC(C)=O)c1)O2)C(C)=CC(C)(C)N3 (centres unmarked) [Example 12, 3-(2,5-Dihydro-10-methoxy-2,2,4-trimethyl-1H-[1]benzopyrano[3,4-f]quinolin-5-yl)phenol, Acetate (Ester)]	8.6 nM	≥ 10000 nM
